Measured values from article PMC11246588, “New 1,2,4-oxadiazole derivatives as potential multifunctional agents for the treatment of Alzheimer’s disease: design, synthesis, and biological evaluation” (BMC Chemistry, 2024).
Where a name gives a salt, the structure may show the parent alone. Read-outs that look alike come from different tables or passages of the source.

Tests used:
MAO-B = target: T1, MAO-B (Homo sapiens, UniProt P27338); experiment: MAO-B inhibitory assay; assay type: biochemical
T1 construct: purchased Sigma M7441
T1 sequence (P27338 1-520): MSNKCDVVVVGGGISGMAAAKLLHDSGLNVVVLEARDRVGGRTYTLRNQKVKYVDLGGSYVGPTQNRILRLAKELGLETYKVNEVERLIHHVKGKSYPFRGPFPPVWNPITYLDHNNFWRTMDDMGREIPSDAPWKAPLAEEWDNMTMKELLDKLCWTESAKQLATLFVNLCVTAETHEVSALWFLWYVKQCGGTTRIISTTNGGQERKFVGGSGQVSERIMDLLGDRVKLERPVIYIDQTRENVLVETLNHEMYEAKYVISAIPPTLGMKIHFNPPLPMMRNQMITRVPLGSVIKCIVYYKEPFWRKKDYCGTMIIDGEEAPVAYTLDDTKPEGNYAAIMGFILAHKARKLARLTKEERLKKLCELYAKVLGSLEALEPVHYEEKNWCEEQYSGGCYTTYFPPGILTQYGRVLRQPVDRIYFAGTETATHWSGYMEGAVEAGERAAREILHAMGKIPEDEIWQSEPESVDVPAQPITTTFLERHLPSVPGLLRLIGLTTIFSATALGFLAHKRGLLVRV

AChE [1] = target: T2, AChE (Homo sapiens, UniProt P22303); experiment: AChE inhibitory assay (Ellman-type, brain homogenate supernatant); assay type: biochemical; conditions: for AChE-IC50 (µM ± SD) / IC50: means of three replicates, N.A. means no activity; for IC50: read-out: AChE-IC50 (µM ± SD); for AChE Selectivity Index: IC50 of BuChE/ IC50 of AChE
T2 construct: from tissue; host or cells: brain homogenate supernatant
T2 sequence (P22303 32-614): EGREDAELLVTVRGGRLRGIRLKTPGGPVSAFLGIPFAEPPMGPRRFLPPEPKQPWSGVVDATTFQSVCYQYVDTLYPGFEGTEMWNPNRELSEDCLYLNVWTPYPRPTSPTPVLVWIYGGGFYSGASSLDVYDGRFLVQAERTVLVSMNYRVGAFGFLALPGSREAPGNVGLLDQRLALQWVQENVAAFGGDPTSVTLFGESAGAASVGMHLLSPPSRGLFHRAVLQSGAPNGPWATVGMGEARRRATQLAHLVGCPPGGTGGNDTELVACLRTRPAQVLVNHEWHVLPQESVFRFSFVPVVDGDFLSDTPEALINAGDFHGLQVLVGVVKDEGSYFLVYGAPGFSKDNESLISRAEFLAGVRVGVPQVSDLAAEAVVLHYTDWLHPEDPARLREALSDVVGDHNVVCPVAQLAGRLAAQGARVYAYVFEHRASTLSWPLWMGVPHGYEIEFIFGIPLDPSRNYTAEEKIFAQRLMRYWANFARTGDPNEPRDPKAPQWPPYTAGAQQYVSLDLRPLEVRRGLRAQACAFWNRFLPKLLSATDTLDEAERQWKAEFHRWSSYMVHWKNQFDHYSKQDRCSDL
Procedure: The results, which are shown in Table 1, are graphically represented in Figs. 2 and 3. […]
3.1. AChE and BuChE inhibitory assays
In ELISA plate (Bio Tec. USA), 150 μL of phosphate buffer was directly added in ELISA blank well and 130 μL of phosphate buffer was added in ELISA activity wells. To the blank and activity wells, 5 μL of substrate ACTI was added, then 20 μL brain homogenate supernatant was added in activity ELISA wells only. The plate was preincubated for 15 min at 37 °C before the addition of the second substrate (DTNB). DTNB (60 μL) was added in both the blank and activity wells. Absorbance was […]
Values obtained were analyzed and blank reading was subtracted from sample readings. The AChE and BuChE inhibition activity of tested compound was expressed as IC 50. IC50 value is the inhibitory concentration at which 50% of AChE or BuChE is repressed. […]
sample concentration using linear regression equations.

[2] = system: human red blood cells (HRBCs); experiment: Anti-hemolytic effect (hypotonic solution-induced human erythrocyte hemolysis); assay type: cell-based; conditions: read-out: Hemolysis-IC50 (µM ± SD)
Procedure: The inhibition of human red blood cells (HRBCs) membrane lysis under […] conditions was taken as a measure of the mechanism of anti-hemolytic activity of the synthesized 1,2,4-oxadiazole-based derivatives. […]
The test carried out triplicate. […]
It was calculated by interpolation from the graph of inhibition percentage against sample concentration using linear regression equations.
The Inhibition percentage was calculated. IC50 value is the […]
centrifugation each time for 10 min at 3000 ×g. […]
solution-induced human erythrocyte hemolysis. […]
consisted of 0.5 mL of RBCs mixed with hypotonic-buffered saline solution alone. The mixtures were incubated for 10 min at room temperature and centrifuged for 10 min at 3000 ×g and the absorbance of the supernatant was measured at 540 nm using optima spectrophotometer. The test carried out triplicate. Inhibition of hemolysis percentages were calculated. Inhibition of hemolysis activity was expressed as IC50.

[3] = DPPH radical scavenging activity; conditions: means of three replicates; N.A. means no activity; read-out: DPPH-IC50 (µM ± SD)
MAO-A = target: T3, MAO-A (Homo sapiens, UniProt P21397); experiment: biochemical
T3 sequence (P21397 1-527): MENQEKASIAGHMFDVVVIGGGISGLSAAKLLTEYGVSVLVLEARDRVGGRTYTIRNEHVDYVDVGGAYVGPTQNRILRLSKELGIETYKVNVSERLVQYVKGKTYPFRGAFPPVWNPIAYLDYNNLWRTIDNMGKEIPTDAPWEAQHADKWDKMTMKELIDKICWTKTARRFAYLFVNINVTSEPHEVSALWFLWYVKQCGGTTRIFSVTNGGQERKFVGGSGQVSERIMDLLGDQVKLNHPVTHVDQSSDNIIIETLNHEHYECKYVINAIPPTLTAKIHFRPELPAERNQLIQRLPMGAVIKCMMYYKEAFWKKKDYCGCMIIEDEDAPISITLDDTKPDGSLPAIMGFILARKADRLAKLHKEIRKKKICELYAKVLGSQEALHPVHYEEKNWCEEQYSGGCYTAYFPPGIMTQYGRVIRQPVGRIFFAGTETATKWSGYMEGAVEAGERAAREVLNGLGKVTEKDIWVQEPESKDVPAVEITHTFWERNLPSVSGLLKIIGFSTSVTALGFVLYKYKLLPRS
Procedure: The MAO-B and MAO-A inhibitory potentials of all the synthesized 1,2,4-oxadiazole-based derivatives were evaluated. Biperiden and methylene blue (methylthioninium chloride) were used as the reference standards.
In test tube, 150 µL of 20 nM of MAO-A or MAO-B (M7441, Sigma), 150 µL of tested compound serial dilutions (0, 0.1,
0.25, 0.5,1 and 2 mg/mL), 133 µL potassium phosphate buffer and 667 µL of or benzylamine (5µM) were mixed well.
absorbance was measured at 250 nm against air after 30 s and 90 s. The Inhibition percentage was calculated.
inhibitory concentration at which 50% of MAO -A or MAO-B is repressed.

AChE [4] = target: T2, AChE; parameters: method as in PMID 18550375, PMID 33017743, PMID 36223681, PMID 34752955, PMID 26077890; conditions: Fig. 1; ref [50]–[55]; cited from earlier work
GSK-3β = system: GSK-3β; parameters: method as in PMID 18550375, PMID 33017743, PMID 36223681, PMID 34752955, PMID 26077890; conditions: Fig. 1; ref [50]–[55]; cited from earlier work
[5] = parameters: method as in PMID 18550375, PMID 33017743, PMID 36223681, PMID 34752955, PMID 26077890; conditions: Fig. 1; ref [50]–[55]; read-out: Anti-neuroinflammatory potency (IC50); cited from earlier work
[6] = inhibition of induced HRBC membrane lysis, means of three replicates

Structure (SMILES) | IC50 (MAO-B) | IC50 [2, 6] | IC50 [3] | IC50 (MAO-A) | IC50 (AChE [1]) | AChE Selectivity Index (AChE [1]) | further results
OC(CCN1CCCCC1)(c1ccccc1)C1CC2C=CC1C2 (centres unmarked) [Biperiden HCl, reference compound] | – | – | – | – | – | – | IC50 (MAO-B; means of three replicates, N.A. means no activity, read-out: MAO-B-IC50 (µM ± SD)): 238 ± 16.3 µM
NNC(=O)COc1ccccc1-c1nc(-c2ccccc2)no1 [Compound 1a] | 359 ± 23.4 µM | 1620 ± 57.8 µM | 1220 ± 51.3 µM | 47.2 ± 8.1 µM | – | – | AChE-IC50 (µM ± SD) (AChE [1]): nonexistent efficacy
NNC(=O)COc1ccccc1-c1nc(Cc2ccccc2)no1 [Compound 1b] | 535 ± 41.5 µM | 1190 ± 78.3 µM | 1280 ± 42.8 µM | 82.5 ± 8.7 µM | 0.031 ± 0.0024 µM | – | –
NNC(=O)COc1ccccc1-c1nc(-c2ccc(C(F)(F)F)cc2)no1 [Compound 1c] | 397 ± 19.6 µM | 657 ± 33.1 µM | 735 ± 12.8 µM | 147 ± 16.9 µM | – | – | AChE-IC50 (µM ± SD) (AChE [1]): nonexistent efficacy
O=C(COc1ccccc1-c1nc(-c2ccccc2)no1)N/N=C\c1ccccc1[N+](=O)[O-] [Compound 2a, (E/Z)-N’-(2-Nitrobenzylidene)-2-(2-(3-phenyl-1,2,4-oxadiazol-5-yl)phenoxy)acetohydrazide] | – | 1790 ± 63.1 µM | 1310 ± 31.5 µM | – | 0.0339 ± 0.0029 µM | – | –
O=C(COc1ccccc1-c1nc(Cc2ccccc2)no1)N/N=C\c1ccccc1[N+](=O)[O-] [Compound 2b, (E/Z)-2-(2-(3-Benzyl-1,2,4-oxadiazol-5-yl)phenoxy)-N’-(2-nitrobenzylidene)acetohydrazide] | 346 ± 14.3 µM | 4100 ± 114 µM | 991 ± 11.4 µM | 204 ± 17.9 µM | 0.00098 ± 1e-06 µM | 36,571 | –
O=C(COc1ccccc1-c1nc(-c2ccc(C(F)(F)F)cc2)no1)N/N=C\c1ccccc1[N+](=O)[O-] [Compound 2c, (E/Z)-N’-(2-Nitrobenzylidene)-2-(2-(3-(4-(trifluoromethyl)phenyl)-1,2,4-oxadiazol-5-yl)phenoxy) acetohydrazide] | 266 ± 13.4 µM | 4340 ± 126 µM | 464 ± 31.5 µM | – | 0.0127 ± 0.00102 µM | 3,100 | –
O=C(COc1ccccc1-c1nc(-c2ccccc2)no1)N/N=C\c1cnn(-c2ccccc2)n1 [Compound 3a, (E/Z)-2-(2-(3-Phenyl-1,2,4-oxadiazol-5-yl)phenoxy)-N’-((2-phenyl-2 H-1,2,3-triazol-4-yl)methylene) acetohydrazide] | – | 622 ± 23.4 µM | – | 85.2 ± 5.9 µM | – | – | AChE-IC50 (µM ± SD) (AChE [1]): nonexistent efficacy
O=C(COc1ccccc1-c1nc(Cc2ccccc2)no1)N/N=C\c1cnn(-c2ccccc2)n1 [Compound 3b, (E/Z)-2-(2-(3-Benzyl-1,2,4-oxadiazol-5-yl)phenoxy)-N’-((2-phenyl-2 H-1,2,3-triazol-4-yl)methylene) acetohydrazide] | 140 ± 8.7 µM | 457 ± 19.6 µM | 537 ± 19.3 µM | – | 0.0233 ± 0.00069 µM | 735 | –
O=C(COc1ccccc1-c1nc(-c2ccc(C(F)(F)F)cc2)no1)N/N=C\c1cnn(-c2ccccc2)n1 [Compound 3c, (E/Z)-N’-((2-Phenyl-2 H-1,2,3-triazol-4-yl)methylene)-2-(2-(3-(4-(trifluoromethyl)phenyl)-1,2,4-oxadiazol-5-yl)phenoxy)acetohydrazide] | – | 661 ± 23.8 µM | 582 ± 42.9 µM | 115 ± 19.5 µM | – | – | AChE-IC50 (µM ± SD) (AChE [1]): nonexistent efficacy
O=C(COc1ccccc1-c1nc(-c2ccccc2)no1)NN1C(=O)c2ccccc2C1=O [Compound 4a, N-(1,3-Dioxoisoindolin-2-yl)-2-(2-(3-phenyl-1,2,4-oxadiazol-5-yl)phenoxy)acetamide] | 394 ± 16.3 µM | 522 ± 15.9 µM | 1660 ± 62.3 µM | – | 0.0328 ± 0.0011 µM | 1,010 | –
O=C(COc1ccccc1-c1nc(Cc2ccccc2)no1)NN1C(=O)c2ccccc2C1=O [Compound 4b, 2-(2-(3-Benzyl-1,2,4-oxadiazol-5-yl)phenoxy)-N-(1,3-dioxoisoindolin-2-yl)acetamide] | 713 ± 22.3 µM | 1790 ± 89.3 µM | 2661 ± 26.3 µM | 130 ± 16.9 µM | 0.0293 ± 0.0013 µM | – | –
O=C(COc1ccccc1-c1nc(-c2ccc(C(F)(F)F)cc2)no1)NN1C(=O)c2ccccc2C1=O [Compound 4c, N-(1,3-Dioxoisoindolin-2-yl)-2-(2-(3-(4-(trifluoromethyl)phenyl)-1,2,4-oxadiazol-5-yl)phenoxy)acetamide] | 117 ± 9.8 µM | 1040 ± 88.9 µM | – | 144 ± 22.4 µM | 0.0377 ± 0.0027 µM | 673 | –
O=C(COc1ccccc1-c1nc(-c2ccccc2)no1)NNC(=O)c1ccc2ccccc2n1 [Compound 5a, N’-(2-(2-(3-Phenyl-1,2,4-oxadiazol-5-yl)phenoxy)acetyl)quinoline-2-carbohydrazide] | 274 ± 21.1 µM | 2020 ± 111 µM | 885 ± 22.9 µM | – | 0.0475 ± 0.0028 µM | – | –
O=C(COc1ccccc1-c1nc(Cc2ccccc2)no1)NNC(=O)c1ccc2ccccc2n1 [Compound 5b, N’-(2-(2-(3-Benzyl-1,2,4-oxadiazol-5-yl)phenoxy)acetyl)quinoline-2-carbohydrazide] | – | 3560 ± 125 µM | – | – | 0.0337 ± 0.00089 µM | 627 | –
O=C(COc1ccccc1-c1nc(-c2ccc(C(F)(F)F)cc2)no1)NNC(=O)c1ccc2ccccc2n1 [Compound 5c, N’-(2-(2-(3-(4-(Trifluoromethyl)phenyl)-1,2,4-oxadiazol-5-yl)phenoxy)acetyl)quinoline-2-carbohydrazide] | – | 521 ± 11.9 µM | 1140 ± 68.9 µM | – | 0.0792 ± 0.0061 µM | 894 | –
O=C(O)Cc1ccccc1Nc1c(Cl)cccc1Cl [Diclofenac, reference compound] | – | – | – | – | – | – | IC50 [2]: 1120 ± 12.6 µM
Cc1cc(-c2noc(-c3ccc(OCC4CCN(Cc5cccc(F)c5)CC4)cc3)n2)ccn1 [III] | – | – | – | – | – | – | IC50 (AChE [4]): 0.07 µM
CC(C)(C)c1ccc(S(=O)(=O)Nc2ccc(-c3nc(-c4ccnc(Nc5ccccc5Cl)c4)no3)cc2)cc1 [II] | – | – | – | – | – | – | IC50 (GSK-3β): 0.19 µM; IC50 [5]: 6.94 µM
O=c1c(O)c(-c2ccc(O)c(O)c2)oc2cc(O)cc(O)c12 [Quercetin, reference compound] | – | – | 491 ± 14.8 µM | – | – | – | –
COc1ccc(-c2noc(Cn3cc(Cn4c5ccccc5c(=O)c5ccccc54)nn3)n2)cc1 [V] | – | – | – | – | – | – | IC50 (AChE [4]): 11.5 µM
